In article PMC13343842, “The accessory protein CvnF8 modulates histidine kinase activity in an actinobacterial G protein system in Streptomyces coelicolor” (mBio, 2026):

Target: T1, CvnA8 (Streptomyces coelicolor, UniProt Q9KYJ8, H183A)
T1 construct: truncated, two N-terminal transmembrane helices removed; printed as 'nucleotides 55–518' (probably residues 55-518); N-terminal 3x Strep tag kept; E. coli BL21(DE3); Strep-Tactin XT and SEC
Experiment: Kinase-Glo Plus luminescence ATP consumption, Michaelis-Menten fit
Assay type: biochemical
Conditions: 1.5 µM CvnA8 H183A, 25 mM Tris pH 8.0, 150 mM NaCl, 100 mM MgCl2, 37 °C; 0-300 µM ATP

T1 sequence (Q9KYJ8 entry or part of it H183A): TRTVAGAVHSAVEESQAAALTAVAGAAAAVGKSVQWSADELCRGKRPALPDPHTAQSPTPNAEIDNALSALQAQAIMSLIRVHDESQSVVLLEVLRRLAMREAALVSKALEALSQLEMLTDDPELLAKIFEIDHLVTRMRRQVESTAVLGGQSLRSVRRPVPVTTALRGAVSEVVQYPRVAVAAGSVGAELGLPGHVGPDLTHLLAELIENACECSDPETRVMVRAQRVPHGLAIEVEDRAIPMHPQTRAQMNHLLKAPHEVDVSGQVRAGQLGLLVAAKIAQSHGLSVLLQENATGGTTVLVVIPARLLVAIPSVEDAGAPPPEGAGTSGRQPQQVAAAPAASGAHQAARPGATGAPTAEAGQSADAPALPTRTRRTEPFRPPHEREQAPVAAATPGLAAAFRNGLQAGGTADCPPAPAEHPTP

Q: Which “Kinase-Glo Plus luminescence ATP consumption, Michaelis-Menten fit” value does the source give for Nc1ncnc2c1ncn2[C@@H]1O[C@H](COP(=O)(O)OP(=O)(O)OP(=O)(O)O)[C@@H](O)[C@H]1O [ATP] here?
A: The value was “drastically reduced in the H183A mutant, which prohibited the calculation of a nominal kcat”.
